For one assay, the system named is S. aureus ATCC 6538. The assay can be described thus: BCT test (bacterial contact time), 60 s, log reduction / effect fraction; CI by Compusyn. Particulars: Staphylococcus aureus, ATCC6538, 1 min, 60 s, in 25% EtOH. Format: cell-based, Staphylococcus aureus. An outline of the steps: (§1)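 Read-out: log CFU from turbidity (OD600) of serially diluted wells after 37° C, 180 rpm growth; log reduction relative to ethanol-only control. Cells at ~1×10^8/mL met ethanolic test compositions 1:1 for the listed contact time. CI from concentrations and effect fractions; <0.9 synergy, 0.9–1.0 additive, >1.0 antagonism.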

Assay [1] deals with Salmonella enterica ATCC 10708. Described as above. It is filed as cell-based. To be noted: Salmonella enterica, ATCC10708, 1 min, BCT 60 s, in 25% EtOH; for log reduction at 0.15 % strength: Dose 0.15 % w/v. An outline of the steps: as §1
Assay [2] relates to Pseudomonas aeruginosa ATCC 15442. The description is as above. Format: cell-based. Particulars: Pseudomonas aeruginosa, ATCC15442, 1 min, BCT 60 s, in 25% EtOH; for log reduction at 0.125 % strength: Dose 0.125 % w/v. An outline of the steps: as §1
The next assay relates to E. coli ATCC 10536. The assay can be described thus: BCT test (bacterial contact time), 45 s, log reduction / effect fraction; CI by Compusyn. Format: cell-based, Escherichia coli. To be noted: for log reduction at 0.2 % strength: dose 0.200 % w/v. An outline of the steps: as §1
A further assay concerns C. xerosis ATCC 373. The assay can be described thus: BCT test (bacterial contact time), 120 s, log reduction / effect fraction; CI by Compusyn. It is filed as cell-based. To be noted: Corynebacterium xerosis, ATCC373, 2 min, contact 120 s, 25% EtOH; for log reduction at 0.25 % strength: dose 0.25% w/v; for log reduction at 0.3 % strength: dose 0.3% w/v. A digest of the protocol:
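C. xerosis cells grown in BHI-TW80 at 37 °C to OD600 1.6 were exposed to ethanolic perfume compositions for 120 s. Viable counts (log CFU) came from serial dilution and OD600 growth after 37 °C incubation, giving log reduction versus ethanol control. CI was computed from concentrations and effect fractions, with <0.9 taken as synergy.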

The mark [3] stands for this setting: Escherichia coli, ATCC10536, 45 s, 45 s, in 20% EtOH.

Read-outs that look alike come from different tables or passages of the source.

Take `CCC(C)(O)CCCC(C)C` (stereo not drawn) [Tetralinol, 3,7-Dimethyl-3-octanol]: the log reduction at 0.0375 % strength in the assay on S. aureus ATCC 6538 (dose 0.0375 % w/v) amounted to 1.3. The log reduction at 0.05 % strength in the assay with S. aureus ATCC 6538 (dose 0.050 % w/v) was 5.5; in assay [1] (Dose 0.05 % w/v, read-out: Log reduction) it was 6.2; in assay [2] (Dose 0.05 % w/v), 3.2; with C. xerosis ATCC 373 (dose 0.05% w/v) it was 0.1. For the same compound, the results for the log reduction at 0.075 % strength (with S. aureus ATCC 6538 (dose 0.075 % w/v); in assay [2] (Dose 0.075 % w/v)) were 7.3 and 3.9, respectively. Moreover, the log reduction at 0.1 % strength in the assay with S. aureus ATCC 6538 (dose 0.100 % w/v) was found to be 7.5; in assay [2] (Dose 0.1 % w/v) it was 7.1. For the same compound, the log reduction at 0.04 % strength came out at 5.3 in assay [1] (Dose 0.04 % w/v) and 7 with E. coli ATCC 10536 (Escherichia coli, ATCC10536, 45 s, dose 0.04% w/v, contact 45 s, 20% EtOH). Moreover, the log reduction at 0.025 % strength in assay [2] (Dose 0.025 % w/v) came out at 1.2; in the assay on E. coli ATCC 10536 (Escherichia coli, ATCC10536, 45 s, dose 0.025 % w/v, 45 s, in 20% EtOH) it was 0.6; in the assay with E. coli ATCC 10536 (Escherichia coli, ATCC10536, 45 s, dose 0.025% w/v, contact 45 s, 20% EtOH), 0.7. For the same compound, the log reduction at 0.125 % strength in assay [2] is 7.1. The log reduction at 0.02 % strength in the assay with E. coli ATCC 10536 (Escherichia coli, ATCC10536, 45 s, dose 0.02 % w/v, 45 s, in 20% EtOH) was 0.1. Moreover, the log reduction at 0.03 % strength in the assay on E. coli ATCC 10536 (Escherichia coli, ATCC10536, 45 s, dose 0.030 % w/v, 45 s, in 20% EtOH) came to 1.4; in the assay with E. coli ATCC 10536 (Escherichia coli, ATCC10536, 45 s, dose 0.03% w/v, contact 45 s, 20% EtOH), 2. Besides, the log reduction at 0.035 % strength with E. coli ATCC 10536 (Escherichia coli, ATCC10536, 45 s, dose 0.035 % w/v, 45 s, in 20% EtOH) is 5; in the assay on E. coli ATCC 10536 (Escherichia coli, ATCC10536, 45 s, dose 0.035% w/v, contact 45 s, 20% EtOH), 5.9. Besides, the Log reduction with E. coli ATCC 10536 (dose 0.025 % w/v, 45 s, in 20% EtOH) was determined as 0.6. Also, in the assay on C. xerosis ATCC 373 (dose 0.2% w/v, read-out: Log reduction), the log reduction at 0.2 % strength was 5.7. The log reduction at 0.25 % strength in the assay on C. xerosis ATCC 373 (read-out: Log reduction) was 6.4. Also, the log reduction at 0.3 % strength in the assay with C. xerosis ATCC 373 (read-out: Log reduction) turned out to be 6.5.
`OC/C=C/c1ccccc1` [Cinnamic alcohol, (2E)-3-phenyl-2-propen-1-ol]: the log reduction at 0.3 % strength in the assay with S. aureus ATCC 6538 (dose 0.300 % w/v, read-out: Log reduction) is 1.8; in assay [1] (Dose 0.3 % w/v), 7.8; in assay [2] (Dose 0.3 % w/v, read-out: Log reduction) it was 6.7; with E. coli ATCC 10536 (Escherichia coli, ATCC10536, 45 s, dose 0.300 % w/v, 45 s, in 20% EtOH) it was 1.4. For the same compound, the log reduction at 0.35 % strength with S. aureus ATCC 6538 (dose 0.350 % w/v, read-out: Log reduction) worked out at 2.6; in the assay with E. coli ATCC 10536 (Escherichia coli, ATCC10536, 45 s, dose 0.350 % w/v, 45 s, in 20% EtOH), 4.2. In addition, the log reduction at 0.4 % strength in the assay on S. aureus ATCC 6538 (dose 0.400 % w/v, read-out: Log reduction) is 5.5; in assay [2] (Dose 0.4 % w/v, read-out: Log reduction), 7.5; in the assay on E. coli ATCC 10536 (Escherichia coli, ATCC10536, 45 s, dose 0.400 % w/v, 45 s, in 20% EtOH), 7.3. Also, in the assay with S. aureus ATCC 6538 (dose 0.45 % w/v), the log reduction at 0.45 % strength stood at 6.9. Besides, the log reduction at 0.5 % strength came to 6.9 with S. aureus ATCC 6538 (dose 0.500 % w/v, read-out: Log reduction) and 2.9 in the assay on C. xerosis ATCC 373 (dose 0.5% w/v). Besides, the log reduction at 0.15 % strength in assay [1] came to 0.5. The log reduction at 0.175 % strength in assay [1] (Dose 0.175 % w/v) is 1. Also, the log reduction at 0.2 % strength in assay [1] (Dose 0.2 % w/v) stood at 1.5; in the assay with E. coli ATCC 10536 (setting [3]), 0.1. Moreover, the log reduction at 0.25 % strength amounted to 4.9 in assay [1] (Dose 0.25 % w/v); 4.1 in assay [2] (Dose 0.25 % w/v, read-out: Log reduction); 0.6 with E. coli ATCC 10536 (Escherichia coli, ATCC10536, 45 s, dose 0.250 % w/v, 45 s, in 20% EtOH); 0 in the assay on C. xerosis ATCC 373 (read-out: Log reduction). In the assay on C. xerosis ATCC 373 (dose 0.6% w/v), the log reduction at 0.6 % strength is 4.3. Also, the log reduction at 0.7 % strength in the assay with C. xerosis ATCC 373 (dose 0.7% w/v) stood at 6. The log reduction at 0.8 % strength in the assay on C. xerosis ATCC 373 (dose 0.8% w/v) stood at 7.2.
As for `CC1=CCC(C(C)(C)O)CC1` (stereo not drawn) [Terpineol Ord, 2-(4-Methylcyclohex-3-en-1-yl)propan-2-ol], the log reduction at 0.125 % strength with S. aureus ATCC 6538 (dose 0.125 % w/v) amounted to 0.8; in assay [2], 4.4; in the assay with E. coli ATCC 10536 (Escherichia coli, ATCC10536, 45 s, dose 0.125 % w/v, 45 s, in 20% EtOH), 1.3. Besides, the log reduction at 0.15 % strength with S. aureus ATCC 6538 (dose 0.150 % w/v, read-out: Log reduction) worked out at 2.8; in assay [1] it was 7.7; in assay [2] (Dose 0.15 % w/v), 6.6; in the assay on E. coli ATCC 10536 (Escherichia coli, ATCC10536, 45 s, dose 0.150 % w/v, 45 s, in 20% EtOH) it was 3.8. Besides, the log reduction at 0.175 % strength with S. aureus ATCC 6538 (dose 0.175 % w/v, read-out: Log reduction) came out at 4.8. Further, the log reduction at 0.2 % strength with S. aureus ATCC 6538 (dose 0.200 % w/v, read-out: Log reduction) is 6.2; in assay [2] (Dose 0.2 % w/v, read-out: Log reduction), 7.6; in the assay with E. coli ATCC 10536 (setting [3]) it was 7.4. The log reduction at 0.25 % strength with S. aureus ATCC 6538 (dose 0.250 % w/v, read-out: Log reduction) amounted to 7.3; in the assay with C. xerosis ATCC 373 (read-out: Log reduction), 2.9. For the same compound, the log reduction at 0.1 % strength is 0.8 in assay [1] (Dose 0.1 % w/v, read-out: Log reduction); 5.4 in assay [1] (Dose 0.10 % w/v, read-out: Log reduction); 0.1 with E. coli ATCC 10536 (Escherichia coli, ATCC10536, 45 s, dose 0.100 % w/v, 45 s, in 20% EtOH, read-out: Log reduction). Besides, in assay [1] (Dose 0.1375 % w/v), the log reduction at 0.1375 % strength amounted to 7.7. The log reduction at 0.135 % strength in assay [2] (Dose 0.135 % w/v) is 4.3. Further, the log reduction at 0.11 % strength in the assay on E. coli ATCC 10536 (Escherichia coli, ATCC10536, 45 s, dose 0.110 % w/v, 45 s, in 20% EtOH) was found to be 0.3. Moreover, the log reduction at 0.3 % strength in the assay with C. xerosis ATCC 373 (read-out: Log reduction) was 3.9. Further, in the assay with C. xerosis ATCC 373 (dose 0.35% w/v, read-out: Log reduction), the log reduction at 0.35 % strength came to 6. Also, the log reduction at 0.4 % strength with C. xerosis ATCC 373 (dose 0.4% w/v, read-out: Log reduction) came out at 6.4.

These data come from patent US12419305B2, “Antimicrobial compositions” (Firmenich SA, priority 2018, dated 2025).
